# Measured values published in paper PMC10387993, “New pyrimidine-N-β-D-glucosides: synthesis, biological evaluation, and molecular docking investigations” (Turkish Journal of Chemistry, 2023).
# Where two headings read alike, the source gives them in different places.
# Assays:
# Assay type in all cases: cell-based
# [1] = tested on: C6 (Rat brain glioma); test: cells; conditions: Rattus norvegicus; for LC50 (concentration giving 50% net cell loss relative to time zero): read-out: LC50; for GI50 / IC50 / IC (total growth inhibition): C6, MTT; for IC50: read-out: IC50; for IC (total growth inhibition): read-out: TGI
# How it was run: (§1)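 Seed ~1 × 10^4 cells/well; final 200 μL. Add MTT in phenol-red-free RPMI 1640, 4 h. Solubilise formazan in DMSO + Sorenson's buffer, 30 min RT. Read 560/690 nm. ≥3 repeats.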
# [2] = tested on: Hep3B; test: cells; conditions: Homo sapiens; for GI50 / IC50 / IC (total growth inhibition): MTT; for IC50: read-out: IC50; for IC (total growth inhibition): read-out: TGI; for LC50 (concentration causing 50% net cell loss relative to time zero): read-out: LC50
# How it was run: as §1
# [3] = in vitro; conditions: human, LC50
# How it was run: as §1
# [4] = tested on: normal FL cells; test: cells; conditions: FL normal cells, MTT; for IC50: read-out: IC50; for IC (total growth inhibition): read-out: TGI
# How it was run: as §1
# [5] = LDH cytotoxic activity assay, HeLa; conditions: human, HeLa cells
# How it was run: (§2)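 Cells grown in DMEM or RPMI 1640 with 10% FBS were seeded at about 5 × 10^3 per well in triplicate. They were exposed to 25, 50, 75 and 100 μg/mL compound for 24 h at 37 °C, 5% CO2, and LDH release was measured by absorbance at 492–630 nm.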
# [6] = LDH cytotoxic activity assay, HT29; conditions: human, HT29 cells; for cytotoxicity at 24 h, 25 μg/mL: HT29, 25 μg/mL; for cytotoxicity at 24 h, 50 μg/mL: HT29, 50 μg/mL; for cytotoxicity at 24 h, 75 μg/mL: HT29, 75 μg/mL; for cytotoxicity at 24 h, 100 μg/mL: HT29, 100 μg/mL
# How it was run: as §2
# [7] = tested on: S. aureus MRSA ATCC 46300; test: Microdilution MIC assay; conditions: S. aureus MRSA ATCC 46300, 24 h at 35 °C
# How it was run: (§3)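 Read-out is visual: absence of turbidity after 24 h at 35 °C defines the MIC, the lowest such concentration in a microwell dilution series.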
# [8] = tested on: S. aureus MSSA ATCC 29213; test: Microdilution MIC assay; conditions: S. aureus MSSA ATCC 29213, 24 h at 35 °C
# How it was run: as §3
# [9] = tested on: E. faecalis ATCC 29212; test: Microdilution MIC assay; conditions: E. faecalis ATCC 29212, 24 h at 35 °C
# How it was run: as §3
# [10] = tested on: S. aureus ATCC 25923; test: Microdilution MIC assay; conditions: S. aureus ATCC 25923, 24 h at 35 °C
# How it was run: as §3
# [11] = tested on: E. coli ATCC 25922; test: Microdilution MIC assay; conditions: Escherichia coli, ATCC25922; E. coli ATCC 25922, 24 h at 35 °C
# How it was run: as §3
# [12] = tested on: S. gordonii NCTC 7870; test: Microdilution MIC assay; conditions: Streptococcus gordonii, NCTC7870; S. gordonii NCTC 7870, 24 h at 35 °C
# How it was run: as §3
# [13] = tested on: E. coli ESBL ATCC 35218; test: Microdilution MIC assay; conditions: Escherichia coli, ATCC35218; E. coli ESBL ATCC 35218, 24 h at 35 °C
# How it was run: as §3
# [14] = tested on: E. faecalis VRE ATCC 19433; test: Microdilution MIC assay; conditions: Enterococcus faecalis; E. faecalis VRE ATCC 19433, 24 h at 35 °C
# How it was run: as §3
# [15] = tested on: A. actinomycetemcomitans ATCC 33384; test: Microdilution MIC assay; conditions: Aggregatibacter actinomycetemcomitans, ATCC33384; A. actinomycetemcomitans ATCC 33384, 24 h at 35 °C
# How it was run: as §3
# [16] = tested on: S. mutans ATCC 35668; test: Microdilution MIC assay; conditions: S. mutans ATCC 35668, 24 h at 35 °C
# How it was run: as §3
# [17] = tested on: P. aeruginosa AGME ATCC 27853; test: Microdilution MIC assay; conditions: Pseudomonas aeruginosa, ATCC27853; P. aeruginosa AGME ATCC 27853, 24 h at 35 °C
# How it was run: as §3
# [18] = Staphylococcus aureus, read-out: MIC
# [19] = Staphylococcus aureus, 24 h, read-out: MIC
# [20] = Enterococcus faecalis, ATCC29212, 24 h, read-out: MIC
# [21] = Staphylococcus aureus, ATCC25923, 24 h, read-out: MIC
# [22] = Streptococcus mutans, ATCC35668, 24 h, read-out: MIC
GI50 [1] [µg/mL],IC50 [1] [µg/mL],GI50 [2] [µg/mL],IC50 [2] [µg/mL],Compound,LC50 (concentration giving 50% net cell loss relative to time zero) [1] [µg/mL],IC (total growth inhibition) [1] [µg/mL],IC (total growth inhibition) [2] [µg/mL],LC50 (concentration causing 50% net cell loss relative to time zero) [2] [µg/mL],LC50 (concentration causing 50% net cell loss) [3] [µg/mL],GI50 [4] [µg/mL],IC50 [4] [µg/mL],IC (total growth inhibition) [4] [µg/mL],"cytotoxicity at 24 h, 25 μg/mL [5] [%]","cytotoxicity at 24 h, 50 μg/mL [5] [%]","cytotoxicity at 24 h, 75 μg/mL [5] [%]","cytotoxicity at 24 h, 100 μg/mL [5] [%]","cytotoxicity at 24 h, 25 μg/mL [6] [%]","cytotoxicity at 24 h, 50 μg/mL [6] [%]","cytotoxicity at 24 h, 75 μg/mL [6] [%]","cytotoxicity at 24 h, 100 μg/mL [6] [%]",other results
> 500,> 500,4.61,> 500,"Cc1ccc(-c2cc(-c3ccncc3)nc(N[C@@H]3O[C@H](CO)[C@@H](O)[C@H](O)[C@H]3O)n2)cc1 [Compound 9, N-[4-(4-methylphenyl)-6-pyridin-4-ylpyrimidin-2-yl]-β-D-glucopyranosylamine]",> 500,> 500,> 500,> 500,> 500,7.04,> 500,> 500,10,34.3,49.6,55.9,25.7,40.9,74.7,81.8,"MIC [7, 18]: 1000 µg/mL; MIC [8]: 125 µg/mL; MIC [8, 19]: 62.5 to 125 µg/mL; MIC [9, 20]: 1000 µg/mL; MIC [10, 21]: 1000 µg/mL; MIC [11]: > 1000 µg/mL; MIC [12]: 1000 µg/mL; MIC [13]: > 1000 µg/mL; MIC [14]: 1000 µg/mL; MIC [15]: 500 µg/mL; MIC [16, 22]: 250 µg/mL; MIC [17]: > 1000 µg/mL"
8.71,49,6.38,> 500,"Cc1ccc(-c2cc(-c3cccnc3)nc(N[C@@H]3O[C@H](CO)[C@@H](O)[C@H](O)[C@H]3O)n2)cc1 [Compound 8, N-[4-(4-methylphenyl)-6-pyridin-3-ylpyrimidin-2-yl]-β-D-glucopyranosylamine]",225,30.7,> 500,> 500,> 500,5.64,> 500,> 500,12.5,35,42,49,20.6,34.5,75.8,95.9,"MIC [7]: <7.81 µg/mL; MIC [7, 18]: < 7.81 µg/mL; MIC [8]: 62.5 µg/mL; MIC [8, 19]: 62.5 to 125 µg/mL; MIC [9, 20]: 1000 µg/mL; MIC [10]: 15.62 µg/mL; MIC [10, 21]: 15.6 to 125 µg/mL; MIC [11]: 1000 µg/mL; MIC [12]: 250 µg/mL; MIC [13]: > 1000 µg/mL; MIC [14]: 500 µg/mL; MIC [15]: 500 µg/mL; MIC [16, 22]: 250 µg/mL; MIC [17]: > 1000 µg/mL"
1.97,7.55,2.56,> 500,"CC(=O)OC[C@H]1O[C@@H](Nc2nc(-c3cccc(C)c3)cc(-c3ccccn3)n2)[C@H](OC(C)=O)[C@@H](OC(C)=O)[C@@H]1OC(C)=O [Compound 13, 2,3,4,6-tetra-O-acetyl-N-[4-(3-methylphenyl)-6-pyridin-2-ylpyrimidin-2-yl]-β-D-glucopyranosylamine]",33.9,4.7,> 500,> 500,> 500,1.63,18.2,19.1,18.1,28,42.8,50.9,31.7,45.5,66.4,79.2,"MIC [7, 18]: 500 µg/mL; MIC [8]: 125 µg/mL; MIC [8, 19]: 62.5 to 125 µg/mL; MIC [9]: 31.25 µg/mL; MIC [9, 20]: 31.2 to 125 µg/mL; MIC [10, 21]: 500 µg/mL; MIC [11]: > 1000 µg/mL; MIC [12]: > 1000 µg/mL; MIC [13]: > 1000 µg/mL; MIC [14]: 1000 µg/mL; MIC [15]: > 1000 µg/mL; MIC [16]: 125 µg/mL; MIC [16, 22]: 62.5 to 125 µg/mL; MIC [17]: > 1000 µg/mL"
